# Measurements reported in patent publication US9288989B2, “Synergistic weed control from applications of penoxsulam and acetochlor” (Dow AgroSciences LLC, priority 2013, dated 2016).
# “And” between values parts separate entries of the source, which are not always exact repeats. Identical values can stand only once.
# Columns and labels:
# CYPRO = experiment: Pre-emergence field trial, weed control, CYPRO; type: in vivo, Cyperus rotundus L.; settings: 35 days
# Experimental: (§1) The (a) penoxsulam or an agriculturally acceptable salt thereof is mixed with or applied in combination with (b) acetochlor or an agriculturally acceptable salt thereof in an amount sufficient to induce a synergistic herbicidal effect. […] As described in the Herbicide Handbook of the Weed Science Society of America, Ninth Edition, 2007, p. […] In some embodiments, the damage or injury to the undesired vegetation caused by the compositions and methods disclosed herein is evaluated using a scale from 0% to 100%, when compared with the untreated control vegetation, wherein 0% indicates no damage to the undesired vegetation and 100% indicates complete destruction of the undesired vegetation.
# (§2) In Colby's equation, the value E corresponds to the effect (plant damage or injury) that is to be expected if the activity of the individual compounds is additive. If the observed effect is higher than the value E calculated according to the Colby equation, then a synergistic effect is present according to the Colby equation. […]
# (§3) Colby's equation was used to determine the herbicidal effects expected from the mixtures, as described above. The results were measured at the evaluation intervals provided in Table 1 after the first application of the compositions. […]
# POLCO = experiment: Pre-emergence field trial, weed control, POLCO; type: in vivo, Polygonum convolvulus L.
# From the text: (§4) The (a) penoxsulam or an agriculturally acceptable salt thereof is mixed with or applied in combination with (b) acetochlor or an agriculturally acceptable salt thereof in an amount sufficient to induce a synergistic herbicidal effect. […] As described in the Herbicide Handbook of the Weed Science Society of America, Ninth Edition, 2007, p. 429, “‘synergism’ [is] an interaction of two or more factors such that the effect when combined is greater than the predicted effect based on the response to each factor applied separately.” Synergistic in the herbicide context can mean that the use of (a) and (b) as defined above results in an increased weed control effect compared to the weed control effects that are possible with the use of (a) or (b) alone. In some embodiments, the damage or injury to the undesired vegetation caused by the compositions and methods disclosed herein is evaluated using a scale from 0% to 100%, when compared with the untreated control vegetation, wherein 0% indicates no damage to the undesired vegetation and 100% indicates complete destruction of the undesired vegetation.
# (§5) In Colby's equation, the value E corresponds to the effect (plant damage or injury) that is to be expected if the activity of the individual compounds is additive. If the observed effect is higher than the value E calculated according to the Colby equation, then a synergistic effect is present according to the Colby equation.
# (§6) Field trials were conducted with applications made in the area of naturally occurring weed populations in multiple countries. The soil or water was treated prior to the emergence of target plants. All treatments were applied using a randomized complete block trial design, with 3-5 replications per treatment.
# (§7) Treatments consisted of penoxsulam and acetochlor applied alone and in combination. Spray solutions were prepared using an appropriate amount of dilution to treat the area of the plots based on use rates and water volumes necessary based on a per hectare basis. Spray solutions were prepared and applied with the specified active ingredients in single and two-way combinations to be able to perform Colby synergy and safening calculations. Formulated products were applied to the soil with a backpack sprayer equipped with flat fan nozzles calibrated to deliver from 200 to 300 L/ha at a normal spray height above the soil, at spray pressures ranging from 200 to 400 kilopascals (kPa). Formulated products were applied into flooded rice paddy by calculating the area to be treated, calculating the amount of active ingredient necessary to treat the area at the specified rates, then mixing the treatments in water to apply 8 L/ha of water to the plots.
# (§8) Colby's equation was used to determine the herbicidal effects expected from the mixtures, as described above. The results were measured at the evaluation intervals provided in Table 1 after the first application of the compositions. […] The herbicide tank-mix combinations tested, application rates and ratios employed, plant species tested, and results are given below.
# TRBSS = experiment: Pre-emergence field trial, weed control, TRBSS; type: in vivo, species of the genus Tribulus
# From the text: as §4, §5, §6, §7, §8
# CHEAL = experiment: Pre-emergence field trial, weed control, CHEAL; type: in vivo, Chenopodium album L.
# From the text: as §4, §5, §6
# as §7, with “Formulated products were applied into flooded rice paddy by calculating the area to be treated, calculating the amount of active ingredient necessary to treat the area at the specified rates, then mixing the treatments in water to apply 8 L/ha of water to the plots.” left out
# as §3
# corn (ZEAMX) = experiment: Pre-emergence field trial, crop injury, corn; settings: in vivo
# Experimental: as §1, §2
# Colby's equation was used to determine the herbicidal effects expected from the mixtures, as described above. The results were measured at the evaluation intervals provided in Table 2 after the first application of the compositions. […]
# VIOAR = experiment: Pre-emergence field trial, weed control, VIOAR; type: in vivo, Viola arvensis Murr.; settings: 61 days
# Experimental: as §1, §2, §3
# POLPE = experiment: Pre-emergence field trial, weed control, POLPE; type: in vivo, Polygonum persicaria L.; settings: 14 days
# Experimental: as §1, §2, §3
# GALAP = experiment: Pre-emergence field trial, weed control, GALAP; type: in vivo, Galium aparine L.
# From the text: as §4, §5, §6
# as §7, with “Formulated products were applied into flooded rice paddy by calculating the area to be treated, calculating the amount of active ingredient necessary to treat the area at the specified rates, then mixing the treatments in water to apply 8 L/ha of water to the plots.” left out
# as §3
# AMARE = experiment: Pre-emergence field trial, weed control, AMARE; type: in vivo, Amaranthus retroflexus; settings: 55 days
# Experimental: as §1, §2, §3
# POLLA = experiment: Pre-emergence field trial, weed control, POLLA; type: in vivo, Polygonum lapathifolium L.
# From the text: as §4, §5, §6, §7, §8
# SOLNI = experiment: Pre-emergence field trial, weed control, SOLNI; type: in vivo, Solanum nigrum
# From the text: as §4, §5, §6
# as §7, with “Formulated products were applied into flooded rice paddy by calculating the area to be treated, calculating the amount of active ingredient necessary to treat the area at the specified rates, then mixing the treatments in water to apply 8 L/ha of water to the plots.” left out
# as §3
# ECHCO = experiment: Pre-emergence field trial, weed control, ECHCO; type: in vivo, Echinochloa colonum (L.) Link
# From the text: as §4, §5, §6, §7, §8
# [1] = 28 days, acetochlor 2300 g ai/ha
# [2] = 64 days, acetochlor 1900 g ai/ha
structure (smiles),measurement,setting,value
"CCOCN(C(=O)CCl)c1c(C)cccc1CC [Acetochlor, 2-chloro-N-(ethoxymethyl)-N-(2-ethyl-6-methylphenyl)acetamide]",Mean % weed control,CYPRO; acetochlor 15 g ai/ha,4.25%
same,Mean % weed control,POLCO; [1],5% and 12.5%
same,Mean % weed control,"TRBSS; 35 days, acetochlor 1800 g ai/ha",78%
same,Mean % weed control,"TRBSS; 49 days, acetochlor 1800 g ai/ha",63%
same,Mean % weed control,"CHEAL; 34 days, acetochlor 1400 g ai/ha",3.33%
same,Mean % weed control,"CHEAL; 61 days, acetochlor 1400 g ai/ha",36.67%
same,Mean % crop injury,corn (ZEAMX),0%
same,Mean % weed control,VIOAR; acetochlor 1400 g ai/ha,0%
same,Mean % weed control,POLPE; acetochlor 1400 g ai/ha,36.67%
same,Mean % weed control,"GALAP; 38 days, acetochlor 1900 g ai/ha",6.67%
same,Mean % weed control,GALAP; [2],10%
same,Mean % weed control,AMARE; acetochlor 2000 g ai/ha,0%
same,Mean % weed control,"POLLA; 14 days, acetochlor 2300 g ai/ha",20%
same,Mean % weed control,POLLA; [1],10% and 7.5%
same,Mean % weed control,"POLLA; 98 days, acetochlor 2300 g ai/ha",12.5%
same,Mean % weed control,SOLNI; [2],13.33%
same,Mean % weed control,"SOLNI; 92 days, acetochlor 1900 g ai/ha",3.33%
same,Mean % weed control,"ECHCO; 20 days, acetochlor 15 g ai/ha",22.5%
same,Mean % weed control,"ECHCO; 35 days, acetochlor 15 g ai/ha",15%
COc1cnc(OC)n2nc(NS(=O)(=O)c3c(OCC(F)F)cccc3C(F)(F)F)nc12 [Penoxsulam],Mean % weed control,CYPRO; penoxsulam 20 g ai/ha,39.38%
same,Mean % weed control,"POLCO; 14 days, penoxsulam 15 g ai/ha",85%
same,Mean % weed control,"POLCO; 14 days, penoxsulam 20 g ai/ha",87.5%
same,Mean % weed control,"POLCO; 28 days, penoxsulam 15 g ai/ha",65%
same,Mean % weed control,"POLCO; 28 days, penoxsulam 20 g ai/ha",77.5%
same,Mean % weed control,"TRBSS; 35 days, penoxsulam 5 g ai/ha",32%
same,Mean % weed control,"TRBSS; 35 days, penoxsulam 10 g ai/ha",38.5%
same,Mean % weed control,"TRBSS; 49 days, penoxsulam 5 g ai/ha",13%
same,Mean % weed control,"TRBSS; 49 days, penoxsulam 10 g ai/ha",32%
same,Mean % weed control,"CHEAL; 34 days, penoxsulam 20 g ai/ha",56.67%
same,Mean % weed control,"CHEAL; 61 days, penoxsulam 20 g ai/ha",50%
same,Mean % weed control,VIOAR; penoxsulam 20 g ai/ha,0%
same,Mean % weed control,POLPE; penoxsulam 20 g ai/ha,80%
same,Mean % weed control,"GALAP; 38 days, penoxsulam 20 g ai/ha",40%
same,Mean % weed control,"GALAP; 64 days, penoxsulam 20 g ai/ha",60%
same,Mean % weed control,AMARE; penoxsulam 12 g ai/ha,30%
same,Mean % weed control,"POLLA; 14 days, penoxsulam 15 g ai/ha",85%
same,Mean % weed control,"POLLA; 28 days, penoxsulam 15 g ai/ha",75%
same,Mean % weed control,"POLLA; 28 days, penoxsulam 20 g ai/ha",90%
same,Mean % weed control,"POLLA; 98 days, penoxsulam 15 g ai/ha",71.25%
same,Mean % weed control,"SOLNI; 64 days, penoxsulam 20 g ai/ha",40%
same,Mean % weed control,"SOLNI; 92 days, penoxsulam 20 g ai/ha",30%
same,Mean % weed control,"ECHCO; 20 days, penoxsulam 15 g ai/ha",38.75%
same,Mean % weed control,"ECHCO; 20 days, penoxsulam 20 g ai/ha",50%
same,Mean % weed control,"ECHCO; 35 days, penoxsulam 15 g ai/ha",55%
